# Experimental data: US8853409B2, “Pyridin-2yl-amino-1, 2, 4-thiadiazole derivatives as glucokinase activators for the treatment of diabetes mellitus” (Array BioPharma Inc., priority 2007, dated 2014)
# Assay: Mouse PK study (oral pharmacokinetics)
# Assay type: in vivo
# Conditions: male, 10 mg/kg, CD-1 mice, plasma, read-out: AUC indicator (oral AUC)
# Procedure: Oral pharmacokinetics of each of the compounds shown in Table 1 (“test compound”) were determined as follows.
# Test compound was formulated in PEG400:ethanol:saline (40:20:40, by volume) for IV administration and in 30% Captisol in water for both IV and PO administration in CD-1 mice. Labetalol was used as an internal standard for the LC-MS/MS assay of the CD-1 mouse samples.
# Adult male CD-1 mice were obtained from Charles River Laboratories in Portage, Mich. At the time of study-start, each CD-1 mouse weighed approximately 30 grams and was between the ages of 7-9 weeks. All CD-1 mice were acclimated to the Array BioPharma Inc. vivarium for at least 5 days prior to administration of an IV dose by way of a tail vein injection (5 mL/kg) or a PO dose by oral gavage (10 mL/kg).
# Animals were euthanized by CO2 inhalation and blood samples were collected by cardiac puncture into syringes containing a 1.5% EDTA solution in water (w/v; pH was titrated to 7.4 with 5 N NaOH; the final ratio of blood to EDTA was approximately […]) as the anticoagulant. Plasma was harvested from blood samples by centrifugation and stored at −20° C. until analysis. The following time points were collected for the IV arm: 0.017, 0.083, 0.25, 0.5, 1, 2, 4, 8, 12 and 24 hours post dose. The following time points were collected for the PO arm: 0.25, 0.50, 1, 4, 8, and 24 hours post dose.
# Protein was precipitated from 20 μL of mouse plasma with the addition of 200 μL of 0.1% acetic acid in acetonitrile. A single 12-point calibration curve was prepared by first serially diluting (3-fold) a 40-μg/mL stock solution of the test compound in acetonitrile. Naive CD-1 mouse plasma (20 μL) was then added to each standard solution (200 μL). A stock solution of the internal standard (Labetalol; 180 μL of 0.1 μg/mL in acetonitrile) was subsequently added to each standard and sample solution, for a total volume of 400 μL. Samples were vortex-mixed for 5 minutes and spun in an Allegra X-12R centrifuge (Beckman Coulter, Fullerton, Calif.) for 15 minutes at approximately 1,500×g at 4° C. A 100-μL aliquot of each supernatant was transferred via a 550 μL Personal Pipettor (Apricot Designs, Monrovia, Calif.) to 96-well plates and diluted 1:1 with HPLC grade water. The resulting plates were sealed with plate mats and analyzed by LC-MS/MS.
# The LC-MS/MS system was comprised of an HTC-PAL autosampler (Leap Technologies, Inc., Carrboro, N.C.), an HP1100 HPLC (Agilent Technologies Inc., Santa Clara, Calif.), and an API4000 triple quadrupole mass spectrometer (Applied Biosystems, Foster City, Calif.). Chromatographic retention of the analyte and internal standard was achieved using a Betasil Phenyl-Hexyl column (2.1×30 mm, 3 μm particle size, Thermo Scientific) in conjunction with gradient conditions using mobile phases A (aqueous 0.1% formic acid and 1% IPA) and B (0.1% formic acid in acetonitrile). The total run time, including re-equilibration time, for a single injection was 3.5 minutes. Mass spectrometric detection of the analytes was accomplished using ESI+ ionization mode. Ion current was optimized during infusion of a stock solution of the test compound. Analyte responses were measured by multiple reaction monitoring (MRM) of transitions unique to each compound.
# Data were acquired and processed using the Applied Biosystems Analyst software (version 1.4.2). Calibration was achieved by plotting the peak area ratios of analyte to internal standard as a function of the normal concentrations of standard samples. A calibration model was generated by quadratic regression of the calibration curve with a weighting factor of 1/x. The model was used to calculate the concentrations in all samples. The lower limit of quantitation (LLOQ) for this analysis was in the single-digit μg/mL range (either 2.03 or 6.10 μg/mL).
# Pharmacokinetic parameters were calculated by established non-compartmental methods using an in-house Excel® (Microsoft Corporation, Redmond, Wash.) macro, PK Toolbox version 2.0. […]
row,Compound,AUC [ng·h/mL]
1,"COCCSc1cnc(Nc2nc([C@H](O)CO)ns2)c(Oc2cccnc2C)c1.Cl [Example 144, (S)-1-(5-(5-(2-methoxyethylthio)-3-(2-methylpyridin-3-yloxy)pyridin-2-ylamino)-1,2,4-thiadiazol-3-yl)ethane-1,2-diol hydrochloride]",5000 to 10000
2,"Cc1nn(C)c(C)c1Oc1cc(Sc2ccccn2)cnc1Nc1nc([C@H](O)C(C)(C)O)ns1.Cl [Example 146, (S)-2-methyl-1-(5-(5-(pyridin-2-ylthio)-3-(1,3,5-trimethyl-1H-pyrazol-4-yloxy)pyridin-2-ylamino)-1,2,4-thiadiazol-3-yl)propane-1,2-diol hydrochloride]",10000 to 20000
3,"Cc1cccnc1Sc1cnc(Nc2nc([C@H](O)CO)ns2)c(Oc2cccnc2C)c1.Cl [Example 141, (S)-1-(5-(5-(3-methylpyridin-2-ylthio)-3-(2-methylpyridin-3-yloxy)pyridin-2-ylamino)-1,2,4-thiadiazol-3-yl)ethane-1,2-diol hydrochloride]",1000 to 5000
4,"Cc1ncccc1Oc1cc(SCC2CC2)cnc1Nc1nc([C@H](O)CO)ns1.Cl [Example 136, (S)-1-(5-(5-(cyclopropylmethylthio)-3-(2-methylpyridin-3-yloxy)pyridin-2-ylamino)-1,2,4-thiadizol-3-yl)ethane-1,2-diol hydrochloride]",10000 to 20000
5,"CCn1nccc1Oc1cc(Sc2ccccn2)cnc1Nc1nc([C@H](O)CO)ns1.Cl [Example 139, (S)-1-(5-(3-(1-Ethyl-1H-pyrazol-5-yloxy)-5-(pyridin-2-ylthio)pyridin-2-ylamino)-1,2,4-thiadiazol-3-yl)ethane-1,2-diol hydrochloride]",> 20000
6,"Cc1ccnc(C)c1Oc1cc(Sc2ccccn2)cnc1Nc1nc([C@H](O)CO)ns1.Cl [Example 142, (S)-1-(5-(3-(2,4-dimethylpyridin-3-yloxy)-5-(pyridin-2-ylthio)pyridin-2-ylamino)-1,2,4-thiadiazol-3-yl)ethane-1,2-diol hydrochloride]",1000 to 5000
7,"Cc1nn(C)c(C)c1Oc1cc(Sc2ccccn2)cnc1Nc1nc([C@H](O)CO)ns1.Cl [Example 147, (S)-1-(5-(5-(pyridin-2-ylthio)-3-(1,3,5-trimethyl-1H-pyrazol-4-yloxy)pyridin-2-ylamino)-1,2,4-thiadiazol-3-yl)ethane-1,2-diol hydrochloride]",1000 to 5000
8,"COCCSc1cnc(Nc2nc([C@H](O)CO)ns2)c(Oc2c(C)nn(C)c2C)c1.Cl [Example 148, (S)-1-(5-(5-(2-methoxyethylthio)-3-(1,3,5-trimethyl-1H-pyrazol-4-yloxy)pyridin-2-ylamino)-1,2,4-thiadiazol-3-yl)ethane-1,2-diol hydrochloride]",1000 to 5000
9,"CCn1nccc1Oc1cc(Sc2ccccn2)cnc1Nc1nc([C@H](O)C(C)(C)O)ns1.Cl [Example 140, (S)-1-(5-(3-(1-ethyl-1H-pyrazol-5-yloxy)-5-(pyridin-2-ylthio)pyridin-2-ylamino)-1,2,4-thiadiazol-3-yl)-2-methylpropane-1,2-diol]",> 20000
10,"COCCCSc1cnc(Nc2nc([C@H](O)CO)ns2)c(Oc2cccnc2C)c1.Cl [Example 138, (S)-1-(5-(5-(3-methoxypropylthio)-3-(2-methylpyridin-3-yloxy)-pyridin-2-ylamino)-1,2,4-thiadizol-3-yl)ethane-1,2-diol hydrochloride]",1000 to 5000

# Results, then the compound that gave them:
row,AUC [ng·h/mL],Compound
1,5000 to 10000,CCc1ncccc1Oc1cc(Sc2ccccn2)cnc1Nc1nc([C@H](O)CO)ns1 [Example 137]
2,5000 to 10000,"CCc1ncccc1Oc1cc(Sc2ccccn2)cnc1Nc1nc([C@H](O)[C@@H](O)COC)ns1.Cl [Example 145, (1S,2S)-1-(5-(3-(2-ethylpyridin-3-yloxy)-5-(pyridin-2-ylthio)pyridin-2-ylamino)-1,2,4-thiadiazol-3-yl)-3-methoxypropane-1,2-diol hydrochloride]"
3,10000 to 20000,"Cc1ncccc1Oc1cc(Sc2ccccn2)cnc1Nc1nc([C@](C)(O)CO)ns1.Cl [Example 150, (S)-2-(5-(3-(2-methylpyridin-3-yloxy)-5-(pyridin-2-ylthio)pyridin-2-ylamino)-1,2,4-thiadiazol-3-yl)propane-1,2-diol hydrochloride]"
4,5000 to 10000,"Cc1ncccc1Oc1cc(Sc2ccccn2)cnc1Nc1nc([C@@H](O)CO)ns1 [Example 149, (R)-1-(5-(3-(2-methylpyridin-3-yloxy)-5-(pyridin-2-ylthio)pyridin-2-ylamino)-1,2,4-thiadiazol-3-yl)ethane-1,2-diol]"
5,10000 to 20000,"Cc1ncccc1Oc1cc(Sc2ccccn2)cnc1Nc1nc([C@H](O)CO)ns1.Cl [Example 134, (S)-1-(5-(3-(2-methylpyridin-3-yloxy)-5-(pyridin-2-ylthio)pyridin-2-ylamino)-1,2,4-thiadiazol-3-yl)ethane-1,2-diol hydrochloride]"
6,5000 to 10000,"Cc1ccc(Oc2cc(Sc3ccccn3)cnc2Nc2nc([C@H](O)CO)ns2)c(C)n1.Cl [Example 135, (S)-1-(5-(3-(2,6-dimethylpyridin-3-yloxy)-5-(pyridin-2-ylthio)pyridin-2-ylamino)-1,2,4-thiadizol-3-yl)ethane-1,2-diol hydrochloride]"
7,> 20000,"Cc1ncccc1Oc1cc(Sc2ccccn2)cnc1Nc1nc([C@H](O)C(C)(C)O)ns1.Cl [Example 143, (S)-2-methyl-1-(5-(3-(2-methylpyridin-3-yloxy)-5-(pyridin-2-ylthio)pyridin-2-ylamino)-1,2,4-thiadiazol-3-yl)propane-1,2-diol hydrochloride]"
8,> 20000,"Cc1ncccc1Oc1cc(Sc2ccccn2)cnc1Nc1nc([C@@](C)(O)CO)ns1.Cl [Example 151, (R)-2-(5-(3-(2-methylpyridin-3-yloxy)-5-(pyridin-2-ylthio)pyridin-2-ylamino)-1,2,4-thiadiazol-3-yl)propane-1,2-diol hydrochloride]"
